Test results as given in US20100144736A1, “NOVEL BIPHENYL THIO-UREA DERIVATIVES USEFUL AS POTASSIUM CHANNEL MODULATORS” (NeuroSearch A/S, priority 2006, published 2010).

Biological target: T1, BK channels heterologously expressed in Xenopus laevis oocytes (Homo sapiens, UniProt Q12791)
T1 construct: expressed in transfected cells; host or cells: Xenopus laevis oocytes
Experiment: BK channel opening activity, two-electrode voltage clamp in Xenopus laevis oocytes
Format: cell-based
Details: Compound added in increasing concentrations, 1, 3 and 10 μM; step from −40 mV to +30 mV; FIG. 1
Experimental: The electrical current through the BK channel is measured conventional two-electrode voltage clamp. BK current is activated by repeated step protocols. In brief, this protocol goes from a resting membrane potential of −40 mV lasting for 5 s to a depolarised step to +30 mV lasting for 1 s. The protocol was repeated continuously.
Having reached a stable current level, Compound 1 was added in increasing concentrations. Between each application compound was washed out until baseline current activity was obtained.

T1 sequence (Q12791 whole entry): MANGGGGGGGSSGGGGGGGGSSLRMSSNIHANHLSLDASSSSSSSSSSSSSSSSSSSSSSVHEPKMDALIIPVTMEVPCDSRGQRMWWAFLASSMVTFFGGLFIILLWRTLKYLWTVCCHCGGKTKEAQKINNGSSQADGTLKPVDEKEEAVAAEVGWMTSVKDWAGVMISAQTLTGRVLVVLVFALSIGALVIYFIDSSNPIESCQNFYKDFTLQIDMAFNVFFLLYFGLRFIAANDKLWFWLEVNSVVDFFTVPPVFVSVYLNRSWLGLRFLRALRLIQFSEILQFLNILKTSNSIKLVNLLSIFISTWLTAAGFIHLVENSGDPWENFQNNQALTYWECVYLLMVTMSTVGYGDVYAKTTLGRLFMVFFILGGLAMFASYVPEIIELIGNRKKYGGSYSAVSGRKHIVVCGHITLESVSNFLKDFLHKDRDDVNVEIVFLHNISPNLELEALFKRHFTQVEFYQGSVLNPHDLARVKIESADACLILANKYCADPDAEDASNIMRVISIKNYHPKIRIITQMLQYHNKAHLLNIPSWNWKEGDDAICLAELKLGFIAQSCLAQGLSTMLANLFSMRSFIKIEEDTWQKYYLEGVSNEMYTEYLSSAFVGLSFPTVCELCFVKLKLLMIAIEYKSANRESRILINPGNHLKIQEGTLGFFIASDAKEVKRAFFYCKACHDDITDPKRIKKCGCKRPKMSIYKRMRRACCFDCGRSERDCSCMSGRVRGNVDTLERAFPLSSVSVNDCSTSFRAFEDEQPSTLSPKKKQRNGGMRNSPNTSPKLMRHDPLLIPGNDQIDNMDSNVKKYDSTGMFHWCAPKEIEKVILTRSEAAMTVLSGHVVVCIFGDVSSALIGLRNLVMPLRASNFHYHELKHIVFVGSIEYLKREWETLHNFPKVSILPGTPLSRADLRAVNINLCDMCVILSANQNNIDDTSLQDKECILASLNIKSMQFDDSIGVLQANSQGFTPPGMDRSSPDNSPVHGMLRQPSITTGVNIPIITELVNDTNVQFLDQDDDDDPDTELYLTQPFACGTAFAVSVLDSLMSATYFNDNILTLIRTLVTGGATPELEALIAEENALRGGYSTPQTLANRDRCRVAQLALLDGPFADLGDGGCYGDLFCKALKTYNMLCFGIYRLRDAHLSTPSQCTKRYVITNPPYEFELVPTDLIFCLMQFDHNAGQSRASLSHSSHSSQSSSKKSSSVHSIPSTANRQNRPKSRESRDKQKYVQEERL

**Q.** With FC(F)(F)c1cc(NC(=S)Nc2ccc(Br)cc2-c2nnn[nH]2)cc(C(F)(F)F)c1 [Compound 1, 1-(3,5-Bis-trifluoromethyl-phenyl)-3-[4-bromo-2-(1H-tetrazol-5-yl)-phenyl]-thiourea] as the compound, how does the “current activated by depolarisation (BK current)” value read?
**A.** marked increase
